Data published in patent publication US20070135448A1, “Use of cathepsin k inhibitors for treating of severe bone loss diseases” (priority 2003, published 2007).

Assays:
[1] = tested on: ovariectomized (OVX) cynomolgus monkeys; experiment: DXA bone mineral density of lumbar spine and femur in OVX cynomolgus monkeys, 18 months oral treatment; assay type: in vivo, cynomolgus monkeys (Macaca fascicularis)
Protocol: The present, 18 month long study is performed in order to assess the effect of COMPOUND A on bone in a non-human primate model of osteoporosis.
(§1) One hundred purpose-bred female cynomolgus monkeys (Macaca fascicularis), 12-13 years of age with closed growth plates are used for this study conducted in compliance with GLP. Eighty animals underwent bilateral ovariectomy and monkeys assigned to the sham group (S) underwent sham surgery. They are dosed twice daily by oral gavage with vehicle (distilled water) or COMPOUND A maleate (COMPOUND A-AF) for 18 months (Table 1).
(§2) DXA (Dual Energy X-ray Absorptiometry) of the lumbar spine and femur is performed twice prior to and at 3 months intervals during treatment. Compression test of third lumbar vertebra and a three-point bending test for the midshaft femur are carried out according to standard procedures. In brief, the cranial and caudal ends of each vertebral body are cut off to obtain a vertebral body specimen with two parallel surfaces and a height of approximately 7 mm. Each specimen is placed between two plates and a load applied at a constant displacement rate of 6 mm/min until failure in an Instron Mechanical Testing Machine. The femur is placed on the lower supports of a three point bending fixture with the anterior side facing downward in an Instron Mechanical Testing Machine. Load is applied at a constant displacement rate of […] until failure.
(§3) All group data are first checked to ensure they meet the assumptions for parametric analysis (normality, homogeneity of variances). Data are transformed, if necessary, to meet the assumptions as closely as possible. Results using transformed data are used for interpretation. In general, data are analyzed by one-way analysis of variance (1-way ANOVA) for variables assessed only once during the treatment phase of the study. For variables assessed repeatedly during the treatment phase, a two-way (group, time) analysis of covariance (ANCOVA) with repeated measures on time is used. For each ANCOVA evaluation, average baseline data for individual animals is used as the covariate. Results are presented as Mean±SEM (standard error of mean).

[2] = tested on: ovariectomized (OVX) cynomolgus monkeys; experiment: Mineral apposition rate (MAR) at the femoral neck, OVX cynomolgus monkeys; assay type: in vivo, cynomolgus monkeys (Macaca fascicularis)
Protocol: as §1
Mineral apposition rate (MAR), an indicator of bone formation, is reduced at cancellous bone for the femoral neck by the mid and high dose (FIG. 6) consistent with the action of an inhibitor of bone turnover.

postmenopausal women = experiment: 12-week double-blind placebo controlled phase IIA study, biochemical markers of bone resorption and formation; assay type: in vivo, human
Protocol: In a 12-week treatment, multicenter, double-blind, randomized, placebo-controlled, parallel group, a dose-ranging, safety, tolerability and efficacy trial with Compound A in postmenopausal women, with 3 weeks follow-up is conducted.
The primary objectives of the study are to assess the effect of Compound A on biochemical markers of bone resorption and bone formation, and to evaluate its safety and tolerability profile. Secondary objectives are to assess the changes in biochemical markers after the end of treatment, and to study the pharmacokinetics of Compound A and its metabolite during and after 12 weeks of treatment.
The population of subjects is normal healthy postmenopausal women. The reason for not investigating osteopenic women is the following: The efficacy endpoints of the study are biochemical markers of bone turnover. These variables are not directly correlated with BMD in man. […] They are at least 5 years postinenopause, mainly because biomarkers are expected to fluctuate less in these women than in the perimenopause. […]
Four doses are tested, 5, 10, 25, and 50 mg od. The duration of the study is 12 weeks, with a 3-week follow-up, 12 weeks treatment allows to assess the timecourse of biomarkers of both, bone resorption and bone formation and to ascertain that a steady-state in biomarkers is achieved.

[3] = tested on: ovariectomized (OVX) cynomolgus monkeys; experiment: Tolerability in the 18 month OVX cynomolgus monkey study; assay type: in vivo; conditions: for Tolerability: 18 months
Protocol: as §1
Ovariectomized (OVX) cynomolgus monkeys are treated orally for 18 months with 3, 10, or 50/30 mg/kg COMPOUND A maleate twice daily (bid).

[4] = tested on: ovariectomized (OVX) cynomolgus monkeys; experiment: Compression test of third lumbar vertebra (LV3), OVX cynomolgus monkeys after 18 months treatment; assay type: in vivo, cynomolgus monkeys (Macaca fascicularis)
Protocol: as §1
DXA (Dual Energy X-ray Absorptiometry) of the lumbar spine and femur is performed twice prior to and at 3 months intervals during treatment. Compression test of third lumbar vertebra and a three-point bending test for the midshaft femur are carried out according to standard procedures. In brief, the cranial and caudal ends of each vertebral body are cut off to obtain a vertebral body specimen with two parallel surfaces and a height of approximately 7 mm. […]
All group data are first checked to ensure they meet the assumptions for parametric analysis (normality, homogeneity of variances). […] In general, data are analyzed by one-way analysis of variance (1-way ANOVA) for variables assessed only once during the treatment phase of the study. For variables assessed repeatedly during the treatment phase, a two-way (group, time) analysis of covariance (ANCOVA) with repeated measures on time is used. […]

[5] = tested on: ovariectomized (OVX) cynomolgus monkeys; experiment: 3-point bending test of midshaft femur, OVX cynomolgus monkeys after 18 months treatment; assay type: in vivo, cynomolgus monkeys (Macaca fascicularis); conditions: mean ± SEM; for Max load: n = 19-20
Protocol: as §1, §2, §3

[6] = High group: 2 × 50 mg/kg/day 1st month, 2 × 30 months 2-18, oral
[7] = High group: 2 × 50 mg/kg/day 1st month, 2 × 30 months 2-18, oral, * p < 0.05 versus OVX
[8] = Low group: 2 × 3 mg/kg/day oral, 18 months
[9] = Low group: 2 × 3 mg/kg/day oral, 18 months, * p < 0.05 versus OVX
[10] = Mid group: 2 × 10 mg/kg/day oral, 18 months

In the case of CCCN1CCN(c2ccc(C(=O)NC3(C(=O)NCC#N)CCCCC3)cc2)CC1 [Compound A, N-[1-(cyanomethyl-carbamoyl)-cyclohexyl]-4-(4-propyl-piperazin-1-yl)-benzamide], the “Whole femur BMD (DXA) compared to group O (OVX)” value ([1]; all three dose levels, over the whole 18 months period) is reported as “significant increase”, the “Lumbar spine LV1-4 BMD (DXA), effect versus OVX” value ([1]; all three doses (3, 10, 50/30 mg/kg bid), 18 months, p<0.05 versus OVX) is reported as “inhibit the effect of OVX” and the “Lumbar spine LV1-4 BMD (DXA), efficacy of group H relative to other doses” value ([1]; group H, 50/30 mg/kg bid) is reported as “tended to be less efficacious”. The “Anterior-posterior diameter of the femur midshaft” value ([1]; groups L and H versus groups S and O) was “tends to be larger”, the “Whole femur BMD (DXA) compared to sham” value ([1]; treated groups, significant at month 9 for groups L and H and at month 18 for group M) was “even above sham for most time points” and the “Mineral apposition rate (MAR) at the periosteal side of the femoral neck” value ([2]; all doses, even the low dose is active) was “highly significantly increased”. For the same compound, the “Mineral apposition rate (MAR) at cancellous bone for the femoral neck” value ([2]; mid and high dose) was “reduced”, the “Bone resorption marker serum CTX versus placebo” value (postmenopausal women; all doses except 5 mg (10, 25, 50 mg od), all time points, p<0.001) was “significant difference” and the “Action on bone resorption marker (sCTX1)” value (postmenopausal women; postmenopausal women, 5, 10, 25, 50 mg od, 12 weeks) was “potent and rapid action”. The “Bone formation markers (serum osteocalcin, BSAP) over time” value (postmenopausal women; postmenopausal women, 12 weeks) was “the decrease of suppression is less than that seen with the bone resorption markers”, the “Other resorption biomarkers (serum NTX, urinary NTX)” value (postmenopausal women; postmenopausal women, 12 weeks) was “support results seen with serum CTX” and the “Food intake and body weight” value ([3]; 50 mg/kg bid oral, first month (then reduced to 30 mg/kg bid)) was “decreases in food intake and body weight”. For the same compound, the Tolerability ([3]; 3 and 10 mg/kg bid oral) was “well tolerated”, the Body weight gain ([3]; High group after reduction to 30 mg/kg bid, until end of study) was “remains significantly lower until the end of the study” and the Tolerability ([3]; OVX cynomolgus monkeys, oral twice daily, overall) was “generally well tolerated”. The “Maximum load in LV3 compression test versus OVX” value ([4]; all treatment groups (L, M, H), 18 months) was “increase maximum load”, the “Maximum load in LV3 compression test, group H” value ([4]; group H, 50/30 mg/kg bid, p<0.01 versus OVX, p<0.05 versus Sham) was “increased above the group S level” and the Moment of inertia [5, 6] was 322 ± 20 mm^4. The Ultimate strength [5, 6] was 196 ± 4 N/mm^2, the Energy [5, 7] was 1276 ± 87 * mJ and the Toughness [5, 7] was 3.6 ± 0.2 MJ/m³. For the same compound, the Max load [5, 6] was 973 ± 45 N, the Moment of inertia [5, 8] was 322 ± 20 mm^4 and the Ultimate strength [5, 8] was 195 ± 5 N/mm^2. For the same compound, the Energy [5, 9] was 1305 ± 91 * mJ, the Toughness [5, 9] was 3.7 ± 0.2 MJ/m³ and the Max load [5, 8] was 972 ± 38 N. It also gave an Energy [5, 10] of 1126 ± 88 mJ, a Moment of inertia [5, 10] of 290 ± 16 mm^4 and a Toughness [5, 10] of 3.3 ± 0.2 MJ/m³. It also gave a Ultimate strength [5, 10] of 193 ± 3 N/mm^2 and a Max load [5, 10] of 894 ± 39 N.
